From US20130267494A1, “1,4-OXAZEPANE DERIVATIVES” (priority 2010, published 2013) come the findings set out here.

Structures can show the parent of a compound that is named as a salt. Where two headings read alike, the source gives them in different places.

Type in all cases: cell-based
For assay [1], the target named is T1, human serotonin transporter (Homo sapiens, UniProt P31645).
T1 construct: expressed in transfected cells
Briefly: Inhibitory action on human serotonin transporter ([3H]-5-hydroxytryptamine uptake in CHO cells). Conditions: CHO, compound 1 μM; relative to inhibitory activity of 10 μM Paroxetine as 100%; read-out: inhibitory rate (%). The method, boiled down:
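CHO-K1 cells stably expressing human SERT, plated overnight, took up [3H]-5-HT (diluted to 200 nM before a 1:10 addition) for 20 min in HEPES-buffered saline with glucose and 0.5% BSA; radioactivity counted by scintillation. Compounds at 10 μM or 1 μM, activity expressed relative to 10 μM paroxetine set as 100%.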

Assay [2] addresses T2, human norepinephrine transporter (Homo sapiens, UniProt P23975).
T2 construct: expressed in transfected cells
The experiment in a line: Inhibitory action on human norepinephrine transporter ([3H]-norepinephrine uptake in CHO cells). The conditions noted are these: CHO, relative to inhibitory activity of 10 μM DMI as 100%. Summed up: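 Stably transfected CHO-K1 cells plated overnight, then given test compound and [3H]-norepinephrine (20 nM final, from 200 nM) in HEPES-buffered saline with 0.5% BSA for 45 min. After PBS washes, retained radioactivity counted by scintillation. Inhibition at 10 μM or 1 μM compound expressed relative to 10 μM DMI as 100%.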

The target of assay [3] is T3, human dopamine transporter (Homo sapiens, UniProt Q01959).
T3 construct: expressed in transfected cells
T3 sequence (Q01959 whole entry): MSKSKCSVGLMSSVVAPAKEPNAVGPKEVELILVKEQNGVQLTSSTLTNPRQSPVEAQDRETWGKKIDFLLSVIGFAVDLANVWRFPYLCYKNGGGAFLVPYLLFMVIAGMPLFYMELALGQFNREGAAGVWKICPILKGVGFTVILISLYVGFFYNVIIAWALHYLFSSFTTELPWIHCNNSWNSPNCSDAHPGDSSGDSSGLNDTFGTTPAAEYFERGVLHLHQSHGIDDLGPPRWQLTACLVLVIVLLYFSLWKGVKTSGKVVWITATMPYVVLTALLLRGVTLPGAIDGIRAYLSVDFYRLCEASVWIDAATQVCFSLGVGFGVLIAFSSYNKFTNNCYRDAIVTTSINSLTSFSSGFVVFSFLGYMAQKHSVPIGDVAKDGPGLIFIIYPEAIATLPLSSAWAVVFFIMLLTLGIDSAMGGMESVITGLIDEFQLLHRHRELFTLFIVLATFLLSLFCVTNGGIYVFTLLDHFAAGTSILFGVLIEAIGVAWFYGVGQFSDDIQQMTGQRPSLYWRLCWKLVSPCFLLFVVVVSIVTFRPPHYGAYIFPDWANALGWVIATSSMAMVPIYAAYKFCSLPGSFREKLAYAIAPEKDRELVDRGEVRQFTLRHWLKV
The experiment in a line: Inhibitory action on human dopamine transporter ([3H]-dopamine uptake in CHO cells). Conditions: CHO, compound 1 μM; relative to inhibitory activity of 100 μM Nomifensine as 100%; read-out: inhibitory rate (%). Summed up: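 CHO-K1 cells stably expressing human dopamine transporter, exposed to compound at 10 μM or 1 μM in HEPES-buffered saline with 0.5% BSA. [3H]-dopamine uptake measured over 60 min by scintillation counting. Activity expressed relative to 100 μM nomifensine as 100%.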

Setting [4] is: compound 1 μM, read-out: inhibitory rate (%).
The mark [5] stands for this setting: read-out: inhibitory rate (%), compound 1 μM.

T1 sequence (P31645 whole entry): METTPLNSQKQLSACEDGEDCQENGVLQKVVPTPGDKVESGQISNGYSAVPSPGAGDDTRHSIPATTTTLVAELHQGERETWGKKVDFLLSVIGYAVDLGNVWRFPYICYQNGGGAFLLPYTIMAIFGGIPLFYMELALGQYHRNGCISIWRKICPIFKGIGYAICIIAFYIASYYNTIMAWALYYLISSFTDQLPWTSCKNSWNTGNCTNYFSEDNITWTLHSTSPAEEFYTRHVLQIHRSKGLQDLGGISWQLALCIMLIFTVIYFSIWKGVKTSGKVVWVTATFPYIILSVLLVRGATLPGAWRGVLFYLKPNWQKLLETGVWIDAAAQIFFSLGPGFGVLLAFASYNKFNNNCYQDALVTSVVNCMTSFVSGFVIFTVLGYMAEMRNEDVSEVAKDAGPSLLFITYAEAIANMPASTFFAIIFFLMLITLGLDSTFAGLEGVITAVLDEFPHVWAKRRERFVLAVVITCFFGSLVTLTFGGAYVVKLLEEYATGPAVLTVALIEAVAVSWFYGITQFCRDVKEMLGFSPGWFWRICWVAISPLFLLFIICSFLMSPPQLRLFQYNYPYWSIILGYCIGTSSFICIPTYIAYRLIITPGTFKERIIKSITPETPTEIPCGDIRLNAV
T2 sequence (P23975 whole entry): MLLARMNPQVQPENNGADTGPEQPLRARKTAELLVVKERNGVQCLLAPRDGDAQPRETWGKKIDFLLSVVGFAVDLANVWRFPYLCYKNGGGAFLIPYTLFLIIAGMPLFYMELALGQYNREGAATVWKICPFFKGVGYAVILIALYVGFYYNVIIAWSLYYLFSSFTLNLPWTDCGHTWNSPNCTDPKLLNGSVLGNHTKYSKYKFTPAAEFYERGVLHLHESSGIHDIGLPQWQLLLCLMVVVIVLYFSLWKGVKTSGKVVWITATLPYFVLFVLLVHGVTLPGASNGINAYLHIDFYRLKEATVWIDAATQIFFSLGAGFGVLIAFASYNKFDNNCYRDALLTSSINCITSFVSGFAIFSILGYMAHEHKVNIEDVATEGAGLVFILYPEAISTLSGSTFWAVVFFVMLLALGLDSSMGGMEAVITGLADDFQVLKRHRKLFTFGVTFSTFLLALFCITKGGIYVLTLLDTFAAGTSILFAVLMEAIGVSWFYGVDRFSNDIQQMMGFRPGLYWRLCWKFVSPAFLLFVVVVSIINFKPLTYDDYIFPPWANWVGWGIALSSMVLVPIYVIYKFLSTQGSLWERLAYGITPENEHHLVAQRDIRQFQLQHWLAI

On to `O=c1[nH]c(-c2csc(C[C@@H]3CNCCO[C@H]3c3ccc(Cl)c(Cl)c3)n2)no1` [Example 199, 3-(2-{[(6R,7R)-7-(3,4-dichlorophenyl)-1,4-oxazepan-6-yl]methyl}-1,3-thiazol-4-yl)-1,2,4-oxadiazol-5(4H)-one monohydrochloride], for which the values for the inhibition at 1 µM in assay [1], in assay [2] (setting [4]) and in assay [3] were 100%, 99% and 66%, respectively.

With `O=c1[nH]c(-c2ccnn(C[C@@H]3CNCCO[C@H]3c3ccc(Cl)c(Cl)c3)c2=O)no1` [Example 209, 2-{[(6S,7R)-7-(3,4-dichlorophenyl)-1,4-oxazepan-6-yl]methyl}-4-(5-oxo-4,5-dihydro-1,2,4-oxadiazol-3-yl)pyridazin-3(2H)-one monohydrochloride], the inhibition at 1 µM in assay [1] was 97%; in assay [2] (setting [5]), 101%; in assay [3] it was 71%.

In the case of `OCCC[C@@H]1CNCCO[C@H]1c1ccc(Cl)c(Cl)c1` [Example 212, 3-[(6R,7R)-7-(3,4-dichlorophenyl)-1,4-oxazepan-6-yl]propan-1-ol monohydrochloride], the figures for the inhibition at 1 µM in assay [1], in assay [2] (setting [4]) and in assay [3] were 98%, 103% and 94%, respectively.

`CC(=O)[C@@H]1CNCCO[C@H]1c1ccc(Cl)c(Cl)c1` [Example 216, 1-[(6R,7R)-7-(3,4-dichlorophenyl)-1,4-oxazepan-6-yl]ethanone monohydrochloride]: the inhibition at 1 µM in assay [1] came out at 42%; in assay [2] (setting [4]) it was 94%; in assay [3], 3%.

Regarding `CC(=O)N[C@H]1CNCCO[C@@H]1c1ccc(Cl)c(Cl)c1` [Example 240, N-[(6S,7R)-7-(3,4-dichlorophenyl)-1,4-oxazepan-6-yl]acetamide monohydrochloride], the inhibition at 1 µM in assay [1] was 94%; in assay [2] (setting [4]), 105%; in assay [3], 60%.

Regarding `NC(=O)N[C@@H]1CNCCO[C@H]1c1ccc(Cl)c(Cl)c1` [Example 262, 1-[(6R,7S)-7-(3,4-dichlorophenyl)-1,4-oxazepan-6-yl]urea monohydrochloride], the inhibition at 1 µM amounted to 71% in assay [1], 98% in assay [2] (setting [4]) and 52% in assay [3].

With `CS(=O)(=O)N[C@@H]1CNCCO[C@H]1c1ccc(Cl)c(Cl)c1` [Example 265, N-[(6R,7S)-7-(3,4-dichlorophenyl)-1,4-oxazepan-6-yl]methanesulfonamide monohydrochloride], the inhibition at 1 µM in assay [1] was found to be 79%; in assay [2] (setting [4]), 102%; in assay [3] it was 72%.

Regarding `CS(=O)(=O)N[C@H]1CNCCO[C@@H]1c1ccc(Cl)c(Cl)c1` [Example 266, N-[(6S,7R)-7-(3,4-dichlorophenyl)-1,4-oxazepan-yl]methanesulfonamide monohydrochloride], the figures for the inhibition at 1 µM in assay [1], in assay [2] (setting [4]) and in assay [3] were 82%, 103% and 76%, respectively.

For `O=C1CN([C@@H]2CNCCO[C@H]2c2ccc(Cl)c(Cl)c2)C(=O)N1` [Example 276, 1-[(6R,7S)-7-(3,4-dichlorophenyl)-1,4-oxazepan-6-yl]imidazolidine-2,4-dione monohydrochloride], the inhibition at 1 µM in assay [1] is 87%; in assay [2] (setting [4]), 103%; in assay [3], 94%.

Regarding `OC[C@@H]1CNCCO[C@H]1c1ccc(F)c(Cl)c1` [Example 284, [(6S,7R)-7-(3-chloro-4-fluorophenyl)-1,4-oxazepan-6-yl]methanol monofumarate], the inhibition at 1 µM was 34% in assay [1], 96% in assay [2] (setting [5]) and 11% in assay [3].

For the compound `OC[C@H]1CNCCO[C@@H]1c1ccc(F)c(Cl)c1` [Example 285, [(6R,7S)-7-(3-chloro-4-fluorophenyl)-1,4-oxazepan-6-yl]methanol 0.5 fumarate], the figures for the inhibition at 1 µM in assay [1], in assay [2] (setting [4]) and in assay [3] were 79%, 94% and 19%, respectively.

With `OC[C@@H]1CNCCO[C@H]1c1ccc(Cl)c(F)c1` [Example 301, [(6S,7R)-7-(4-chloro-3-fluorophenyl)-1,4-oxazepan-6-yl]methanol monohydrochloride], the inhibition at 1 µM in assay [1] was 52%; in assay [2] (setting [4]), 100%; in assay [3] it was 10%.

For the compound `OC[C@H]1CNCCO[C@@H]1c1ccc(Cl)c(F)c1` [Example 302, [(6R,7S)-7-(4-chloro-3-fluorophenyl)-1,4-oxazepan-6-yl]methanol monohydrochloride], the inhibition at 1 µM is 73% in assay [1], 98% in assay [2] (setting [4]) and 12% in assay [3].

Take `O=C(CC(F)(F)F)NC[C@@H]1CNCCO[C@H]1c1ccc(Cl)c(F)c1` [Example 314, N-{[(6S,7R)-7-(4-chloro-3-fluorophenyl)-1,4-oxazepan-6-yl]methyl}-3,3,3-trifluoropropanamide monohydrochloride]: the inhibition at 1 µM worked out at 49% in assay [1], 104% in assay [2] (setting [4]) and 11% in assay [3].

Take `O=C(CO)NC[C@@H]1CNCCO[C@H]1c1ccc(Cl)c(F)c1` [Example 315, N-{[(6S,7R)-7-(4-chloro-3-fluorophenyl)-1,4-oxazepan-6-yl]methyl}-2-hydroxyacetamide monohydrochloride]: the inhibition at 1 µM stood at 43% in assay [1], 105% in assay [2] (setting [4]) and 13% in assay [3].

Turning to `O=C(NC[C@@H]1CNCCO[C@H]1c1ccc(Cl)c(F)c1)c1cc(-c2noc(=O)[nH]2)ccc1F` [Example 357, N-{[(6S,7R)-7-(4-chloro-3-fluorophenyl)-1,4-oxazepan-6-yl]methyl}-2-fluoro-5-(5-oxo-4,5-dihydro-1,2,4-oxadiazol-3-yl)benzamide monohydrochloride], the values for the inhibition at 1 µM in assay [1], in assay [2] (setting [4]) and in assay [3] were 102%, 103% and 19%, respectively.

As to `O=C(NC[C@@H]1CNCCO[C@H]1c1ccc(Cl)c(F)c1)c1ccc[nH]c1=O` [Example 367, N-{[(6S,7R)-7-(4-chloro-3-fluorophenyl)-1,4-oxazepan-6-yl]methyl}-2-oxo-1,2-dihydropyridine-3-carboxamide monohydrochloride], the inhibition at 1 µM in assay [1] came to 99%; in assay [2] (setting [4]), 103%; in assay [3], 57%.

Consider `O=C1NCCCN1C[C@@H]1CNCCO[C@H]1c1ccc(Cl)c(F)c1` [Example 372, 1-{[(6S,7R)-7-(4-chloro-3-fluorophenyl)-1,4-oxazepan-6-yl]methyl}tetrahydropyrimidin-2(1H)-one monohydrochloride], for which the inhibition at 1 µM in assay [1] was determined as 98%; in assay [2] (setting [5]), 103%; in assay [3], 97%.

Turning to `O=C1CCCCN1C[C@@H]1CNCCO[C@H]1c1ccc(Cl)c(F)c1` [Example 376, 1-{[(6S,7R)-7-(4-chloro-3-fluorophenyl)-1,4-oxazepan-6-yl]methyl}piperidin-2-one monohydrochloride], the inhibition at 1 µM in assay [1] is 98%; in assay [2] (setting [4]), 102%; in assay [3], 89%.
